This is an account of results in article PMC12596731, “Cys–Lys stapling for unprotected peptides via tunable linkers” (National Science Review, 2025).

The data set in a line: Cys-Lys stapling of unprotected peptides with unsymmetrical linker (1.5 equiv): Cys thiol displaces phthalimide from N-thiophthalimide (disulfide, ~1 min), then ring closure by Lys amine attack on pentafluorophenyl ester with DIPEA (4 equiv). The conditions noted are these: the molecule shown is the open-chain precursor, CH3CN:H2O 3:1, 25.0 °C, 0.167 h.

Turning to `CC[C@H](C)[C@H](NC(=O)[C@@H]1CCCN1C(=O)[C@H](CSS/C(=C/Cl)COCC(=O)Oc1c(F)c(F)c(F)c(F)c1F)NC(C)=O)C(=O)N[C@@H](CCSC)C(=O)N[C@@H](CCC(=O)O)C(=O)N[C@@H](CC(=O)O)C(=O)N[C@@H](CCCNC(=N)N)C(=O)N[C@@H](CCCCN)C(=O)N1CCC[C@H]1C(N)=O` [Ac-Cys(S-linker 3f-OPfp)-Pro-Ile-Met-Glu-Asp-Arg-Lys-Pro-NH2], the ring closure, isolated yield (35-membered ring) was determined as 75%.
Turning to `CC(=O)N[C@H](C(=O)N[C@@H](CO)C(=O)N[C@@H](Cc1ccccc1)C(=O)N[C@@H](CCCCN)C(=O)N[C@@H](CCC(N)=O)C(=O)N[C@@H](Cc1ccc(O)cc1)C(=O)N[C@@H](Cc1c[nH]c2ccccc12)C(=O)N[C@@H](CSS/C(=C/Cl)CCCC(=O)Oc1c(F)c(F)c(F)c(F)c1F)C(=O)N[C@@H](CC(C)C)C(=O)N[C@@H](CC(C)C)C(=O)N[C@@H](CO)C(=O)N[C@@H](CCCNC(=N)N)C(N)=O)[C@@H](C)O`, the ring closure, isolated yield (26-membered ring) turned out to be 85%.
For the compound `CC(=O)N[C@@H](CCC(N)=O)C(=O)N[C@@H](CO)C(=O)N[C@@H](CCC(N)=O)C(=O)N[C@@H](CCC(N)=O)C(=O)N[C@H](C(=O)N[C@@H](Cc1ccccc1)C(=O)N[C@@H](CSS/C(=C/Cl)CCCCC(=O)Oc1c(F)c(F)c(F)c(F)c1F)C(=O)N[C@@H](CC(N)=O)C(=O)N[C@@H](CC(C)C)C(=O)N[C@@H](Cc1c[nH]c2ccccc12)C(=O)N[C@@H](CCCNC(=N)N)C(=O)N[C@@H](CC(C)C)C(=O)N[C@@H](CC(C)C)C(=O)N[C@@H](CCCCN)C(=O)N[C@@H](CCC(N)=O)C(=O)N[C@@H](CC(N)=O)C(N)=O)[C@@H](C)O`, under “36-membered ring”, the ring closure, isolated yield was found to be 84%.
Turning to `CC(=O)N[C@H](C(=O)N[C@@H](CO)C(=O)N[C@@H](Cc1ccccc1)C(=O)N[C@@H](CCCCN)C(=O)N[C@@H](CCC(N)=O)C(=O)N[C@@H](Cc1ccc(O)cc1)C(=O)N[C@@H](Cc1c[nH]c2ccccc12)C(=O)N[C@@H](CSS/C(=C/Cl)CCCCC(=O)Oc1c(F)c(F)c(F)c(F)c1F)C(=O)N[C@@H](CC(C)C)C(=O)N[C@@H](CC(C)C)C(=O)N[C@@H](CO)C(=O)N[C@@H](CCCNC(=N)N)C(N)=O)[C@@H](C)O`, the ring closure, isolated yield (27-membered ring) came out at 76%.
Consider `CC(=O)N[C@@H](CCC(N)=O)C(=O)N[C@@H](CO)C(=O)N[C@@H](CCC(N)=O)C(=O)N[C@@H](CCC(N)=O)C(=O)N[C@H](C(=O)N[C@@H](Cc1ccccc1)C(=O)N[C@@H](CSS/C(=C/Cl)COCC(=O)Oc1c(F)c(F)c(F)c(F)c1F)C(=O)N[C@@H](CC(N)=O)C(=O)N[C@@H](CC(C)C)C(=O)N[C@@H](Cc1c[nH]c2ccccc12)C(=O)N[C@@H](CCCNC(=N)N)C(=O)N[C@@H](CC(C)C)C(=O)N[C@@H](CC(C)C)C(=O)N[C@@H](CCCCN)C(=O)N[C@@H](CCC(N)=O)C(=O)N[C@@H](CC(N)=O)C(N)=O)[C@@H](C)O`, for which the ring closure, isolated yield (35-membered ring) is 89%.
For the compound `CC(=O)N[C@@H](CCC(N)=O)C(=O)N[C@@H](CO)C(=O)N[C@@H](CCC(N)=O)C(=O)N[C@@H](CCC(N)=O)C(=O)N[C@H](C(=O)N[C@@H](Cc1ccccc1)C(=O)N[C@@H](CSS/C(=C/Cl)CCCCCCCCC(=O)Oc1c(F)c(F)c(F)c(F)c1F)C(=O)N[C@@H](CC(N)=O)C(=O)N[C@@H](CC(C)C)C(=O)N[C@@H](Cc1c[nH]c2ccccc12)C(=O)N[C@@H](CCCNC(=N)N)C(=O)N[C@@H](CC(C)C)C(=O)N[C@@H](CC(C)C)C(=O)N[C@@H](CCCCN)C(=O)N[C@@H](CCC(N)=O)C(=O)N[C@@H](CC(N)=O)C(N)=O)[C@@H](C)O`, the ring closure, isolated yield (40-membered ring) stood at 75%.
On to `CC(=O)N[C@@H](CCCCN)C(=O)N[C@@H](C)C(=O)N[C@@H](C)C(=O)N[C@@H](C)C(=O)N[C@@H](CSS/C(=C/Cl)CCC(=O)Oc1c(F)c(F)c(F)c(F)c1F)C(=O)N[C@@H](Cc1ccccc1)C(N)=O` [Ac-Lys-Ala-Ala-Ala-Cys(S-linker 3a-OPfp)-Phe-NH2], for which the ring closure, isolated yield (25-membered ring) is 72%.
